Measurements as given in patent US6914045B2, “Glycopeptide antibiotics” (Wyeth Holdings Corporation, priority 2001, dated 2005).
Values after ≈ are worked out from the molar mass of the structure shown.

Legend:
Assay in all cases: in vitro antibacterial evaluation, MIC by broth dilution
Type in all cases: cell-based
[1] = system: Enterococcus sp.; conditions: broth dilution, 18 hours at 35° C.; for MIC Enterococcus faecalis (ATCC 29212): strain ATCC 29212; for MIC Enterococcus faecalis (GC 2242): strain GC 2242; for MIC Enterococcus faecium (GC 2243): strain GC 2243; for MIC Enterococcus faecalis (GC 2691): strain GC 2691; for MIC Enterococcus faecalis (GC 3059): strain GC 3059; for MIC Enterococcus faecalis (GC 4552): strain GC 4552; for MIC Enterococcus faecalis (GC 4553): strain GC 4553; for MIC Enterococcus faecalis (GC 4554): strain GC 4554; for MIC Enterococcus faecium (GC 4556): strain GC 4556; for MIC Enterococcus faecium (GC 4557): strain GC 4557; for MIC Enterococcus avium (GC 4558): strain GC 4558; for MIC Enterococcus faecalis (GC 6189): strain GC 6189
Method in brief: (§1)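 Inoculum 5×10^5 CFU/mL; concentrations 64 to 0.06 μg/mL; MIC defined as lowest inhibitory level. Conducted by broth dilution under NCCLS guidelines.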

[2] = system: Escherichia coli
Method in brief: as §1

[3] = system: Staphylococcus sp.; conditions: broth dilution, 18 hours at 35° C.; for MIC Staphylococcus aureus (GC 1131): strain GC 1131
Method in brief: as §1

[4] = system: Streptococcus sp.; conditions: broth dilution, 18 hours at 35° C.; for MIC Streptococcus pneumoniae (ATCC 6301): strain ATCC 6301; for MIC Streptococcus pneumoniae (GC 1894): strain GC 1894; for MIC Streptococcus pyogenes (GC 4563): strain GC 4563; for MIC Streptococcus agalactiae (GC 4564): strain GC 4564; for MIC Streptococcus pneumoniae (GC 4565): strain GC 4565
Method in brief: as §1

MIC Enterococcus faecalis (ATCC 29212) ([1]; inoculum 5×10^5 CFU/mL): 2 µg/mL (≈ 1.31 µM) | MIC Enterococcus faecalis (GC 2242) ([1]; inoculum 5×10^5 CFU/mL): 2 µg/mL (≈ 1.31 µM) | MIC Enterococcus faecium (GC 2243) ([1]; inoculum 5×10^5 CFU/mL): 2 µg/mL (≈ 1.31 µM) | MIC Enterococcus faecalis (GC 2691) ([1]; inoculum 5×10^5 CFU/mL): 4 µg/mL (≈ 2.61 µM) | MIC Enterococcus faecalis (GC 3059) ([1]; inoculum 5×10^5 CFU/mL): 4 µg/mL (≈ 2.61 µM) | MIC Enterococcus faecalis (GC 4552) ([1]; inoculum 5×10^5 CFU/mL): 2 µg/mL (≈ 1.31 µM) | MIC Enterococcus faecalis (GC 4553) ([1]; inoculum 5×10^5 CFU/mL): 1 µg/mL (≈ 0.653 µM) | MIC Enterococcus faecalis (GC 4554) ([1]; inoculum 5×10^5 CFU/mL): 2 µg/mL (≈ 1.31 µM) | MIC Enterococcus faecium (GC 4556) ([1]; inoculum 5×10^5 CFU/mL): 4 µg/mL (≈ 2.61 µM) | MIC Enterococcus faecium (GC 4557) ([1]; inoculum 5×10^5 CFU/mL): 4 µg/mL (≈ 2.61 µM) | MIC Enterococcus avium (GC 4558) ([1]; inoculum 5×10^5 CFU/mL): 4 µg/mL (≈ 2.61 µM) | MIC Enterococcus faecalis (GC 6189) ([1]; inoculum 5×10^5 CFU/mL): 2 µg/mL (≈ 1.31 µM) | MIC Enterococcus faecalis (ATCC 29212) [1]: 2 µg/mL (≈ 1.31 µM) | MIC Enterococcus faecalis (GC 2242) [1]: 2 µg/mL (≈ 1.31 µM) | MIC Enterococcus faecium (GC 2243) [1]: 2 µg/mL (≈ 1.31 µM) | MIC Enterococcus faecalis (GC 2691) [1]: 4 µg/mL (≈ 2.61 µM) | MIC Enterococcus faecalis (GC 3059) [1]: 4 µg/mL (≈ 2.61 µM) | MIC Enterococcus faecalis (GC 4552) [1]: 2 µg/mL (≈ 1.31 µM) | MIC Enterococcus faecalis (GC 4553) [1]: 1 µg/mL (≈ 0.653 µM) | MIC Enterococcus faecalis (GC 4554) [1]: 2 µg/mL (≈ 1.31 µM) | MIC Enterococcus faecium (GC 4556) [1]: 4 µg/mL (≈ 2.61 µM) | MIC Enterococcus faecium (GC 4557) [1]: 4 µg/mL (≈ 2.61 µM) | MIC Enterococcus avium (GC 4558) [1]: 4 µg/mL (≈ 2.61 µM) | MIC Enterococcus faecalis (GC 6189) [1]: 2 µg/mL (≈ 1.31 µM) | MIC Escherichia coli (ATCC 25922) ([2]; strain ATCC 25922, 18 hours at 35° C.): >64 µg/mL | MIC Escherichia coli (GC 4559) ([2]; strain GC 4559, 18 hours at 35° C.): >64 µg/mL | MIC Escherichia coli (GC 4560) ([2]; strain GC 4560, 18 hours at 35° C.): 16 µg/mL (≈ 10.4 µM) | MIC Staphylococcus aureus (GC 1131) ([3]; inoculum 5×10^5 CFU/mL): 4 µg/mL (≈ 2.61 µM) | MIC Staphylococcus aureus (ATCC 29213) ([3]; strain ATCC 29213): 4 µg/mL (≈ 2.61 µM) | MIC Staphylococcus aureus (GC 1131) [3]: 4 µg/mL (≈ 2.61 µM) | MIC Staphylococcus aureus (GC 3051) ([3]; strain GC 3051): 4 µg/mL (≈ 2.61 µM) | MIC Staphylococcus aureus (GC 3053) ([3]; strain GC 3053): 4 µg/mL (≈ 2.61 µM) | MIC Staphylococcus aureus (GC 4541) ([3]; strain GC 4541): 4 µg/mL (≈ 2.61 µM) | MIC Staphylococcus aureus (GC 4542) ([3]; strain GC 4542): 4 µg/mL (≈ 2.61 µM) | MIC Staphylococcus aureus (GC 4544) ([3]; strain GC 4544): 4 µg/mL (≈ 2.61 µM) | MIC Staphylococcus aureus (GC 4545) ([3]; strain GC 4545): 4 µg/mL (≈ 2.61 µM) | MIC Staphylococcus aureus-SMITH (GC 4543) ([3]; strain GC 4543): 4 µg/mL (≈ 2.61 µM) | MIC Coagulase Negative Staphylococcus (GC 4547) ([3]; strain GC 4547): 8 µg/mL (≈ 5.22 µM) | MIC Coagulase Negative Staphylococcus (GC 4548) ([3]; strain GC 4548): 2 µg/mL (≈ 1.31 µM) | MIC Coagulase Negative Staphylococcus (GC 4549) ([3]; strain GC 4549): 1 µg/mL (≈ 0.653 µM) | MIC Coagulase Negative Staphylococcus (GC 4551) ([3]; strain GC 4551): 2 µg/mL (≈ 1.31 µM) | MIC Coagulase Negative Staphylococcus (GC 6257) ([3]; strain GC 6257): 2 µg/mL (≈ 1.31 µM) | MIC Streptococcus pneumoniae (ATCC 6301) ([4]; inoculum 5×10^5 CFU/mL): <0.06 µg/mL | MIC Streptococcus pneumoniae (GC 1894) ([4]; inoculum 5×10^5 CFU/mL): <0.06 µg/mL | MIC Streptococcus pyogenes (GC 4563) ([4]; inoculum 5×10^5 CFU/mL): 0.5 µg/mL (≈ 0.326 µM) | MIC Streptococcus agalactiae (GC 4564) ([4]; inoculum 5×10^5 CFU/mL): <0.06 µg/mL | MIC Streptococcus pneumoniae (GC 4565) ([4]; inoculum 5×10^5 CFU/mL): <0.06 µg/mL | MIC Streptococcus pneumoniae (ATCC 6301) [4]: <0.06 µg/mL | MIC Streptococcus pneumoniae (GC 1894) [4]: <0.06 µg/mL | MIC Streptococcus pyogenes (GC 4563) [4]: 0.5 µg/mL (≈ 0.326 µM) | MIC Streptococcus agalactiae (GC 4564) [4]: <0.06 µg/mL | MIC Streptococcus pneumoniae (GC 4565) [4]: <0.06 µg/mL
SMILES: CC(c1ccccc1)C1NC(=O)CNC(=O)C(CO)NC(=O)C(C(O)C2CNC(=N)N2C2OC(CO)C(O)C(O)C2O)NC(=O)C(C(O)C2CNC(=N)N2)NC(=O)C(Cc2ccc(OC3OC(CO)C(OC4OC5COC(c6ccc(Oc7ccc(C(C)(C)C)cc7)cc6)OC5C(O)C4O)C(O)C3O)cc2)NC1=O (centres unmarked) [Example 181]
MIC Staphylococcus haemolyticus (GC 4546) ([3]; strain GC 4546): 8 µg/mL (≈ 5.22 µM)
